This assay deals with T1, JuvD-RhFRED (Micromonospora chalcea, UniProt A0A1Z1MZ59).
T1 sequence (A0A1Z1MZ59 1-402): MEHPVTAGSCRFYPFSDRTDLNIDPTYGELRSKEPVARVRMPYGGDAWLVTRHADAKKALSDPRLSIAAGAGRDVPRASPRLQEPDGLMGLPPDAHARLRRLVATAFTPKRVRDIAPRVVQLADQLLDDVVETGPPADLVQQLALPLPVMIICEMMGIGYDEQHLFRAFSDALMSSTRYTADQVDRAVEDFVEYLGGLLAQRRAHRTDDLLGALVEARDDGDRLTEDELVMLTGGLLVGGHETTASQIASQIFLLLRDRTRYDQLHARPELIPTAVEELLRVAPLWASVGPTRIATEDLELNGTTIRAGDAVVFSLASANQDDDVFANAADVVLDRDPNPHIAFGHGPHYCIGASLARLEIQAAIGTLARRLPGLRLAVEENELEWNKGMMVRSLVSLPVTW
Kind of assay: in vitro P450 oxidation. The format is biochemical. As to conditions: C12-C13 epoxidation; enzyme preparation not given.

The structures appear in SMILES notation.

With `CC[C@H]1OC(=O)C[C@@H](O)[C@H](C)[C@@H](O[C@@H]2O[C@H](C)C[C@H](N(C)C)[C@H]2O)[C@@H](CC=O)C[C@@H](C)C(=O)/C=C/C(C)=C/[C@@H]1C` [compound 5, M-4365 G2], the “in vitro P450 oxidation” value is recorded as “this enzyme effectively converted each substrate to a single product”.

The values are drawn from paper PMC5532807 (Journal of the American Chemical Society, 2017).
